Consider 1 compound from patent publication US11464745B2, “Solid pharmaceutical dosage formulations and processes” (UCL Business PLC, priority 2016, dated 2022).

For data set [1] the following is noted: FDM printing; cited from earlier work.
A short description of data set [2]: Determination of drug loading by HPLC (drug degradation during SLS printing). In kind it is physicochemical. The following applies: SLS 3D printing, 445 nm 2.3 W laser. The method, then: Tablets weighing approx. 300 mg, prepared as in example 1, were placed in a volumetric flask with deionized water (1 L) under magnetic stirring until complete dissolution.
Samples of the solutions were then filtered through 0.45 μm filters (Millipore Ltd, Ireland) and the concentration of drug determined with high performance liquid chromatograph (HPLC). We used a Hewlett Packard 1050 Series HPLC system, Agilent Technologies, UK. The validated high performance liquid chromatographic assay entailed injecting 20 μL samples for analysis using a mobile phase, consisting of gradient system of (A) water adjusted to pH 2 with orthophosphoric acid and (B) acetonitrile, through a Luna 5 μm C18 column, 150×4.6 mm (Phenomenex, UK) maintained at 40° C. The mobile phase was pumped at a flow rate of 1 mL/min under the following gradient program: 0-15 min, 5-20% B; 15-16 min, 20-5% B.
HPLC drug loading studies have been performed. […] (Goyanes et al. 3D printing of modified-release aminosalicylate (4-ASA and 5-ASA) tablets. Eur. J. Pharm. Biopharm. 89, 157-162).

Take `Nc1ccc(C(=O)O)c(O)c1` [4-ASA]: the “drug degradation while printing” value in data set [1] is reported as “degrade”. Further, the “drug degradation during the printing process (HPLC)” value in data set [2] is “No degradation”.
